Test results as given in the supplement of paper PMC11451515.

Test system: P12-Ichikawa
Assay: cell viability relative to DMSO control; higher = less cytotoxic
Settings: 48 h
Outline: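 Library compounds in DMSO were pin-dosed in an 11-point threefold series (47 μM to 0.79 nM) onto leukemia cells in 1536-well plates (5 μl). Plates held 500 cells/well of NOMO1 or SEM or 1000 cells/well of P12-Ichikawa, each adapted for at least four passages in each medium. Luminescence was read with CellTiter-Glo One after 48 h at 37°C. Viability means the per-plate percentage relative to DMSO wells, using cell-free wells as background.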

[1] = HPLM + 10% dialyzed FBS, 0.000781 µM
[2] = HPLM + 10% dialyzed FBS, 0.00234 µM
[3] = HPLM + 10% dialyzed FBS, 0.00702 µM
[4] = HPLM + 10% dialyzed FBS, 0.0211 µM
[5] = HPLM + 10% dialyzed FBS, 0.0632 µM
[6] = HPLM + 10% dialyzed FBS, 0.19 µM
[7] = HPLM + 10% dialyzed FBS, 0.569 µM
[8] = HPLM + 10% dialyzed FBS, 1.71 µM
[9] = HPLM + 10% dialyzed FBS, 5.12 µM
[10] = HPLM + 10% dialyzed FBS, 15.4 µM
[11] = HPLM + 10% dialyzed FBS, 46.1 µM
[12] = RPMI 5 mM glucose + 10% FBS, 0.000781 µM
[13] = RPMI 5 mM glucose + 10% FBS, 0.00234 µM
[14] = RPMI 5 mM glucose + 10% FBS, 0.00702 µM
[15] = RPMI 5 mM glucose + 10% FBS, 0.0211 µM
[16] = RPMI 5 mM glucose + 10% FBS, 0.0632 µM
[17] = RPMI 5 mM glucose + 10% FBS, 0.19 µM
[18] = RPMI 5 mM glucose + 10% FBS, 0.569 µM
[19] = RPMI 5 mM glucose + 10% FBS, 1.71 µM
[20] = RPMI 5 mM glucose + 10% FBS, 5.12 µM
[21] = RPMI 5 mM glucose + 10% FBS, 15.4 µM
[22] = RPMI 5 mM glucose + 10% FBS, 46.1 µM
[23] = RPMI 5 mM glucose + 10% dialyzed FBS, 0.000781 µM
[24] = RPMI 5 mM glucose + 10% dialyzed FBS, 0.00234 µM
[25] = RPMI 5 mM glucose + 10% dialyzed FBS, 0.00702 µM
[26] = RPMI 5 mM glucose + 10% dialyzed FBS, 0.0211 µM
[27] = RPMI 5 mM glucose + 10% dialyzed FBS, 0.0632 µM
[28] = RPMI 5 mM glucose + 10% dialyzed FBS, 0.19 µM
[29] = RPMI 5 mM glucose + 10% dialyzed FBS, 0.569 µM
[30] = RPMI 5 mM glucose + 10% dialyzed FBS, 1.71 µM
[31] = RPMI 5 mM glucose + 10% dialyzed FBS, 5.12 µM
[32] = RPMI 5 mM glucose + 10% dialyzed FBS, 15.4 µM
[33] = RPMI 5 mM glucose + 10% dialyzed FBS, 46.1 µM

Row | SMILES | cell viability [1] [%] | cell viability [2] [%] | cell viability [3] [%] | cell viability [4] [%] | cell viability [5] [%] | cell viability [6] [%] | cell viability [7] [%] | cell viability [8] [%] | cell viability [9] [%] | cell viability [10] [%] | cell viability [11] [%] | cell viability [12] [%] | cell viability [13] [%] | cell viability [14] [%] | cell viability [15] [%] | cell viability [16] [%] | cell viability [17] [%] | cell viability [18] [%] | cell viability [19] [%] | cell viability [20] [%] | cell viability [21] [%] | cell viability [22] [%] | cell viability [23] [%] | cell viability [24] [%] | cell viability [25] [%] | cell viability [26] [%] | cell viability [27] [%] | cell viability [28] [%] | cell viability [29] [%] | cell viability [30] [%] | cell viability [31] [%] | cell viability [32] [%] | cell viability [33] [%]
1 | Cc1nc2ccc(CN(C)c3ccc(C(=O)N[C@@H](CCC(=O)O)C(=O)O)s3)cc2c(=O)[nH]1 | 119 | 119 | 118 | 118 | 120 | 56.7 | 42.2 | 26.5 | 24.9 | 25.9 | 21.4 | 112 | 117 | 126 | 115 | 113 | 97 | 66.2 | 42.6 | 38.2 | 35.1 | 31.7 | 106 | 116 | 105 | 119 | 108 | 88.9 | 60.8 | 32.4 | 28.5 | 27.8 | 26.9
2 | CN(C)C(=O)[C@H](O)[C@H](Cc1ccccc1)NC(=O)c1cc2cc(Cl)ccc2[nH]1 | 98.8 | 110 | 111 | 114 | 119 | 115 | 122 | 127 | 119 | 80.3 | 43.4 | 95.3 | 112 | 109 | 117 | 119 | 130 | 130 | 130 | 113 | 68.6 | 51.5 | 99.5 | 118 | 118 | 119 | 121 | 131 | 125 | 133 | 127 | 94 | 70
3 | CCOc1ccccc1N/N=C1/C(=O)N(c2nc(-c3ccccc3)cs2)N=C1C | 111 | 114 | 114 | 115 | 114 | 108 | 104 | 101 | 103 | 86.4 | 67 | 115 | 108 | 108 | 121 | 116 | 120 | 112 | 106 | 114 | 98.9 | 97 | 113 | 118 | 110 | 116 | 113 | 108 | 109 | 105 | 106 | 94.6 | 94.6
4 | OC1=C(Cl)C=C(N\C2=C(\C(=O)NC2=O)C3=C(C=CC=C3)[N+]([O-])=O)C=C1 | 100 | 100 | 98.9 | 102 | 112 | 97.7 | 103 | 99.5 | 90.1 | 87.4 | 79.5 | 98.6 | 109 | 105 | 110 | 99.4 | 98.9 | 111 | 105 | 104 | 83.9 | 58.1 | 100 | 107 | 112 | 115 | 110 | 109 | 113 | 106 | 109 | 86.7 | 69.5
5 | C[C@H](NC(=O)[C@@H](O)c1cc(F)cc(F)c1)C(=O)N[C@@H]1C(=O)N(C)c2ccccc2-c2ccccc21 | 118 | 116 | 111 | 119 | 106 | 108 | 105 | 101 | 96.8 | 102 | 90.1 | 114 | 116 | 119 | 115 | 114 | 111 | 102 | 90.5 | 99.8 | 101 | 94.3 | 114 | 110 | 109 | 109 | 106 | 101 | 99.6 | 106 | 95.8 | 94.3 | 78.5
6 | OC(=O)CNC(=O)\C1=C(/O)C2=CC=CC=C2N(CC3=CC=CC=C3)C1=O | 97.6 | 113 | 102 | 104 | 104 | 100 | 105 | 101 | 101 | 103 | 39.4 | 98.7 | 108 | 113 | 114 | 108 | 101 | 102 | 107 | 93 | 97.2 | 92.8 | 90.4 | 97.9 | 104 | 95.1 | 93.1 | 94.4 | 94 | 93.1 | 95.8 | 94.5 | 5.26
7 | CC[C@H](C)C(=O)O[C@H]1C[C@@H](C)\C=C2\C=C/[C@H](C)[C@H](CC[C@@H]3C[C@@H](O)CC(=O)O3)[C@@H]12 | 91.8 | 94.1 | 93.3 | 91.4 | 92.1 | 87.7 | 97.1 | 91.7 | 89.3 | 64.5 | 46.8 | 76.3 | 90.1 | 87.6 | 89.1 | 84.5 | 82.3 | 89.6 | 84.9 | 83.1 | 44.1 | 24 | 80 | 89.8 | 89.5 | 85.5 | 94.6 | 88.3 | 84.4 | 77.9 | 77.4 | 54.8 | 29.7
